Patent publication US12060355B2, “Compounds for use in the treatment of fascioliasis” (Merck Patent GmbH, priority 2018, dated 2024)

Experiments:
F. hepatica adult fluke = F. hepatica adult fluke motility score, in vitro; format: cell-based, Fasciola hepatica; design: key: Good movement Score 1 • (Curled, sticking on wall, movement on petri plate or conical flask); Moderate movement Score 2 • (Less vigor but more than 10 seconds pulses or peristaltic waves); Resting Score 3 • (Less than 10 second pulses in head and body); Apathetic Score 4 • (Head and body with less than 2 second pulses); Faint movement of suckers Score 5 • (Movement of oral or ventral suckers only, whole body paralyzed); Inert Score 6 • (No movement at all or dead); conditions: for F. hepatica motility score after 24 h / F. hepatica motility score after 48 h / F. hepatica motility score after 72 h: adult fluke; for F. hepatica motility score after 24 h: score 1 (good movement) to 6 (inert); for F. hepatica motility score after 48 h / F. hepatica motility score after 72 h: score 1 to 6 (inert)
Description: The routine biological assays using adult liver fluke are described in Alessandra Crusco, Cinzia Bordoni, Anand Chakroborty, Kezia C. L. Whatley, Helen Whiteland, Andrew D. Westwell, Karl F. Hoffmann, “Design, synthesis and anthelmintic activity of 7-keto-sempervirol analogues”, European Journal of Medicinal Chemistry, Volume 152, 2018, Pages 87-100.
The routine biological assays using adult or juvenile S. mansoni worms and cytotoxicity assays using MRC-5 cells have been disclosed previously in Mansour, N. R., et al. (2016). “High Throughput Screening Identifies Novel Lead Compounds with Activity against Larval, Juvenile and Schistosoma mansoni PLoS Negl Trop Dis 10(4): e0004659. […] Motility is scored as per the table below: • Good movement Score 1 • (Curled, sticking on wall, movement on petri plate or conical flask) • Moderate movement Score 2 • (Less vigor but more than 10 seconds pulses or peristaltic waves) • Resting Score 3 • (Less than 10 second pulses in head and body) • Apathetic Score 4 • (Head and body with less than 2 second pulses) • Faint movement of suckers Score 5 • (Movement of oral or ventral suckers only, whole body paralyzed) • Inert Score 6 • (No movement at all or dead) • (b) S. mansoni adult worms • (c) S. mansoni juvenile worms • (d) S. haemotobium adult worms • (e) Cytotoxicity against human MRC-5 cell line • (f) Cytotoxicity against human HepG2 cell lines

human HepG2 cell lines = format: cell-based; conditions: human HepG2 cell line
juvenile worms = assay: In vivo mouse model infected with juvenile worms, worm recovery; design: species or system S. mansoni; conditions: Schistosoma mansoni, 360 h, mice, juvenile infection, Formulation F1, read-out: Percent worm reduction
Method: Methods for the subcutaneous infection of mice and subsequent worm recovery were as described in Mansour et al (2016) except that infection was with 150 cercariae and the perfusion medium was citrate saline (0.9% sodium chloride, 1.5% tri-sodium citrate). Perfusion was carried out 8 days (adult infections) or 15 days (juvenile infections) after treatment. Perfuseate was collected into 30 mL universal tubes. RBC (Red Blood Cells) were removed by allowing the perfuseate to settle for 10 min, removal of most of the supernatant and washing once as above with 10 mL perfusion medium. A drop of dilute aqueous saponin solution was added to lyse any remaining RBC and the worm suspension poured into a grid-marked small petri dish. The tube was rinsed out into the petri dish and examined for any remaining worms. Worms were counted using a dissecting microscope. The mouse livers removed after perfusion were squashed between two thick glass plates and examined visually and any remaining worms added to those counted as above.
For testing efficacy against the juvenile worms, treatment was on day 25 post infection and for testing against the adult worms on day 42 post infection. Drugs were suspended in 7% Tween-80/3% Ethanol/double distilled water and drug dispersal was facilitated by vortexing and using a sonicating water bath (Formulation F1). […]

[1] = system: S. mansoni juvenile worms; assay: S. mansoni juvenile worm assay, in vitro; format: cell-based; conditions: Schistosoma mansoni; juvenile worms in vitro; IC50; read-out: S. mansoni Juvenile
Method: (§1) The routine biological assays using adult or juvenile S. mansoni worms and cytotoxicity assays using MRC-5 cells have been disclosed previously in Mansour, N. R., et al. (2016). “High Throughput Screening Identifies Novel Lead Compounds with Activity against Larval, Juvenile and Schistosoma mansoni PLoS Negl Trop Dis 10(4): e0004659. Cytotoxicity assays using the HepG2 cell line were carried out as described in Molecular Diversity (2015) 19, 251-261. • (a) F. hepatica adult fluke motility score tested at 5 μM. Motility is scored as per the table below: • Good movement Score 1 • (Curled, sticking on wall, movement on petri plate or conical flask) • Moderate movement Score 2 • (Less vigor but more than 10 seconds pulses or peristaltic waves) • Resting Score 3 • (Less than 10 second pulses in head and body) • Apathetic Score 4 • (Head and body with less than 2 second pulses) • Faint movement of suckers Score 5 • (Movement of oral or ventral suckers only, whole body paralyzed) • Inert Score 6 • (No movement at all or dead) • (b) S. mansoni adult worms • (c) S. mansoni juvenile worms • (d) S. haemotobium adult worms • (e) Cytotoxicity against human MRC-5 cell line • (f) Cytotoxicity against human HepG2 cell lines

S. mansoni adult worms = assay: S. mansoni adult worm assay, in vitro; format: cell-based; conditions: Schistosoma mansoni; adult worms in vitro; read-out: S. mansoni Adult
Method: as §1

| IC50 [1] | IC50 (S. mansoni adult worms) | SMILES | Mean motility score of F hepatica at 24 h (F. hepatica adult fluke; 0.04 μM) | Mean motility score of F hepatica at 48 h (F. hepatica adult fluke; 0.04 μM) | Mean motility score of F hepatica at 72 h (F. hepatica adult fluke; 0.04 μM) | Mean motility score of F hepatica at 24 h (F. hepatica adult fluke; 0.2 μM) | Mean motility score of F hepatica at 48 h (F. hepatica adult fluke; 0.2 μM) | Mean motility score of F hepatica at 72 h (F. hepatica adult fluke; 0.2 μM) | Mean motility score of F hepatica at 24 h (F. hepatica adult fluke; 1 μM) | Mean motility score of F hepatica at 48 h (F. hepatica adult fluke; 1 μM) | Mean motility score of F hepatica at 72 h (F. hepatica adult fluke; 1 μM) | Mean motility score of F hepatica at 24 h (F. hepatica adult fluke; 5 μM) | Mean motility score of F hepatica at 48 h (F. hepatica adult fluke; 5 μM) | Mean motility score of F hepatica at 72 h (F. hepatica adult fluke; 5 μM) | F. hepatica motility score after 24 h (F. hepatica adult fluke; 5 μM) | F. hepatica motility score after 48 h (F. hepatica adult fluke; 5 μM) | F. hepatica motility score after 72 h (F. hepatica adult fluke; 5 μM) | Cytotox HepG2 (human HepG2 cell lines) | inhibition in vivo at 50 mg/kg (juvenile worms; oral 50 mg/kg) | inhibition in vivo at 200 mg/kg (juvenile worms; oral 200 mg/kg) |
| --- | --- | --- | --- | --- | --- | --- | --- | --- | --- | --- | --- | --- | --- | --- | --- | --- | --- | --- | --- | --- |
| – | – | CC(C)c1nc2cnc(-c3ccc(F)c(C(F)(F)F)c3)cn2c1-c1c(F)cc(O)cc1F [Example 17, 3,5-difluoro-4-[2-(propan-2-yl)-6-[4-fluoro-3-(trifluoromethyl)phenyl]imidazo[1,2-a]pyrazin-3-yl]phenol] | 1, 1, 1 | 1, 1, 1 | 1, 1, 1 | 3 | 3 | 6 | 6, 6, 6 | 6, 6, 6 | 6, 6, 6 | 6, 6, 6 | 6, 6, 6 | 6, 6, 6 | (6, 6, 6) at 5 μM | (6, 6, 6) at 5 μM | (6, 6, 6) at 5 μM | 7.1 µM | 38% | 84% |
| 22 nM | 28 nM | CC(C)c1nn2ccc(-c3ccc(F)c(C(F)(F)F)c3)cc2c1-c1ccc2[nH]ncc2c1F [Example 55, 4-Fluoro-5-[5-(4-fluoro-3-trifluoromethyl-phenyl)-2-isopropylpyrazolo[1,5-a]pyridin-3-yl]-1H-indazole] | – | – | – | – | – | – | – | – | – | – | – | – | (6, 6, 6) at 5 μM | (6, 6, 6) at 5 μM | (6, 6, 6) at 5 μM | 11.1 µM | – | – |
